Values joined by “and” are separate entries in the source; they are usually repeats but may differ in a detail not shown here. Equal entries are not always repeated. Where two headings read alike, the source gives them in different places.
Key:
PilF159-482 = target: T1, PilF159-482 (Thermus thermophilus, UniProt Q5SLC9); experiment: ITC binding to PilF159-482; details: 20 °C; for Kd: pH 7.5, two-site model
T1 sequence (Q5SLC9 159-482): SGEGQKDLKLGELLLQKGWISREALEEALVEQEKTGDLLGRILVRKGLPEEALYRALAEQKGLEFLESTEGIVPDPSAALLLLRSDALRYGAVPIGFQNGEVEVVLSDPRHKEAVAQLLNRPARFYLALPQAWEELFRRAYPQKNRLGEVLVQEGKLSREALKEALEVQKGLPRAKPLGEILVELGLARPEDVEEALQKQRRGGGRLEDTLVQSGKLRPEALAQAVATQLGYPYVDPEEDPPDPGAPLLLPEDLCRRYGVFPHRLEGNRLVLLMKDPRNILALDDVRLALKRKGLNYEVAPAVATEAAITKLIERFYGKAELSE
Experimental: (§1) To assess the ligand-binding capabilities of the various PilF constructs, triplicates of ITC measurements were recorded for each construct. The measurements were carried out using a MicroCal ITC200 (Malvern Panalytical). All ITC experiments were conducted at 20 °C with 50 mM Tris-HCl pH 7.5, 200 mM sodium chloride, 1 mM β-mercaptoethanol as the sample buffer. All protein samples were extensively dialyzed against the sample buffer and the buffer used for dialysis was used to dilute protein and c-di-GMP samples in preparation for the ITC measurements. Each measurement was conducted using the following protocol. In total, 39.8 μl c-di-GMP were titrated to 270 μl protein in 20 separate injections in 180 s intervals with a stirring speed of 750 rpm. After an initial delay of 120 s, the first injection of 0.2 μl c-di-GMP with a duration of 0.4 s was followed by 19 injections of 2 μl with a duration of 4 s. During the measurement, the feedback mode was set to high and the reference power to 11 μcal s^−1. To optimize precision of the measurements, protein and c-di-GMP concentrations were adjusted to the binding capabilities of the respective constructs and ranged from 5 to 200 μM for protein and 50 to 2000 μM for c-di-GMP. All thermograms were processed using Origin 7.0 (OriginLab) using a one-site– or two-site–binding model dependent on the number of expected binding events.

PilF159-302 Q190E+Q218E = experiment: ITC binding to PilF159-302 Q190E+Q218E; design: species or system Thermus thermophilus; details: 20 °C, double mutant
Experimental: as §1

PilB = target: PilB; design: method as in PMID 27578558, PMID 31868878; details: cited from earlier work
[1] = target: degenerate EAL-domain of FimX; design: method as in PMID 19679088; details: cited from earlier work
PilF159-302 L166G = target: T2, PilF159-302 L166G (Thermus thermophilus, UniProt Q5SLC9, L166G); experiment: ITC binding to PilF159-302 L166G; details: 20 °C
T2 sequence (Q5SLC9 159-302 L166G): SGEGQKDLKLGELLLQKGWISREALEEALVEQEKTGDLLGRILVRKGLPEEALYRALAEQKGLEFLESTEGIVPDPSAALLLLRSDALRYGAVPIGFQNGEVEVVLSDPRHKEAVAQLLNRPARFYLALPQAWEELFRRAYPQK
Experimental: as §1

[2] = target: MshEN (N-terminal domain of ATPase MshE); design: method as in PMID 27578558; details: full length MshEN; cited from earlier work
PilF159-302 L196R = target: T3, PilF159-302 L196R (Thermus thermophilus, UniProt Q5SLC9, L196R); experiment: ITC binding to PilF159-302 L196R; details: 20 °C
T3 sequence (Q5SLC9 159-302 L196R): T2 sequence (Q5SLC9 159-302 L166G)
Experimental: as §1

PilF159-302 Q218E = target: T4, PilF159-302 Q218E (Thermus thermophilus, UniProt Q5SLC9, Q218E); experiment: ITC binding to PilF159-302 Q218E; details: 20 °C
T4 sequence (Q5SLC9 159-302 Q218E): T2 sequence (Q5SLC9 159-302 L166G)
Experimental: as §1

PilF159-302 D266A = target: T5, PilF159-302 D266A (Thermus thermophilus, UniProt Q5SLC9, D266A); experiment: ITC binding to PilF159-302 D266A; details: 20 °C
T5 sequence (Q5SLC9 159-302 D266A): T2 sequence (Q5SLC9 159-302 L166G)
Experimental: as §1

PilF159-302 K167R+E170D = target: T6, PilF159-302 K167R+E170D (Thermus thermophilus, UniProt Q5SLC9, E170D/K167R); experiment: ITC binding to PilF159-302 K167R-E170D; details: 20 °C
T6 sequence (Q5SLC9 159-302 K167R/E170D): T2 sequence (Q5SLC9 159-302 L166G)
Experimental: as §1

PilZ domain of PlzD = target: PilZ domain of PlzD; design: method as in PMID 18034161; details: cited from earlier work
PilF159-302 K167L = target: T7, PilF159-302 K167L (Thermus thermophilus, UniProt Q5SLC9, K167L); experiment: ITC binding to PilF159-302 K167L; details: 20 °C
T7 sequence (Q5SLC9 159-302 K167L): T2 sequence (Q5SLC9 159-302 L166G)
Experimental: as §1

[3] = target: MshEN lacking the entire C-terminal subdomain; design: method as in PMID 27578558; details: entire C-terminal subdomain deleted; read-out: KD (ligand affinity); cited from earlier work
[4] = target: T8, PilF1-302 (GSPII-A and GSPII-B) (Thermus thermophilus, UniProt Q5SLC9); experiment: ITC binding to PilF1-302; details: 20 °C
T8 sequence (Q5SLC9 1-302): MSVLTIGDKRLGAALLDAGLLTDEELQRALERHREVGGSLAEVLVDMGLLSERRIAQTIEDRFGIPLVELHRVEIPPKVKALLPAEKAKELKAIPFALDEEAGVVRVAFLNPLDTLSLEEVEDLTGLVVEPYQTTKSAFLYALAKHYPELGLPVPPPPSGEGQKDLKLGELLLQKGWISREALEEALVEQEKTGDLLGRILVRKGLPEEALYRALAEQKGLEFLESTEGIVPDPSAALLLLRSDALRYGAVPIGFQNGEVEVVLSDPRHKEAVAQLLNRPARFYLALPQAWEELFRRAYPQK
Experimental: as §1

Question: With `Nc1nc2c(ncn2[C@@H]2O[C@@H]3COP(=O)(O)O[C@H]4[C@@H](O)[C@H](n5cnc6c(=O)[nH]c(N)nc65)O[C@@H]4COP(=O)(O)O[C@H]3[C@H]2O)c(=O)[nH]1` [c-di-GMP, cyclic dimeric guanosine monophosphate] as the compound, how does the “N, site 1” value (PilF159-482; Table S1 site 1) read?
Answer: 1 ± 0.1

Question: What about the “ΔH, site 1” value (PilF159-482; Table S1 site 1) of the same compound?
Answer: -8.689 ± 0.959 kcal/mol

Question: What about the “ΔS, site 1” value (PilF159-482; Table S1 site 1) of the same compound?
Answer: 0.95 ± 3.5 cal/mol/deg

Question: What about the “N, site 2” value (PilF159-482; Table S1 site 2) of the same compound?
Answer: 0.7 ± 0.1

Question: What about the “ΔH, site 2” value (PilF159-482; Table S1 site 2) of the same compound?
Answer: -11.766 ± 1.182 kcal/mol

Question: What about the “ΔS, site 2” value (PilF159-482; Table S1 site 2) of the same compound?
Answer: 2.1 ± 4.7 cal/mol/deg

Question: And the Kd (PilF159-482; read-out: KD, site 1 (low affinity))?
Answer: 208 ± 27 nM

Question: What about the Kd (PilF159-482; read-out: KD, site 2 (high affinity)) of the same compound?
Answer: 1 ± 0.3 nM

Question: What about the c-di-GMP binding (PilF159-302 Q190E+Q218E) of the same compound?
Answer: abrogated c-di-GMP binding

Question: And the Kd (PilB)?
Answer: 53 nM

Question: What about the Kd [1] of the same compound?
Answer: 100 to 200 nM

Question: What about the N (PilF159-302 L166G) of the same compound?
Answer: 0.92 ± 0.10

Question: And the ΔH (PilF159-302 L166G)?
Answer: -10.283 ± 0.189 kcal/mol

Question: And the ΔS (PilF159-302 L166G)?
Answer: 1.2 ± 3.4 cal/mol/deg

Question: What about the Kd (PilF159-302 L166G; pH 7.5) of the same compound?
Answer: 3 nM

Question: What about the Kd [2] of the same compound?
Answer: ~500 nM and 500 nM

Question: And the N (PilF159-302 L196R)?
Answer: 1.23 ± 0.03

Question: What about the ΔH (PilF159-302 L196R) of the same compound?
Answer: -8.148 ± 0.209 kcal/mol

Question: And the ΔS (PilF159-302 L196R)?
Answer: 7.1 ± 0.8 cal/mol/deg

Question: What about the Kd (PilF159-302 L196R; pH 7.5) of the same compound?
Answer: 23 ± 2 nM

Question: And the N (PilF159-302 Q218E)?
Answer: 1.26 ± 0.06

Question: What about the ΔH (PilF159-302 Q218E) of the same compound?
Answer: -5.312 ± 0.34 kcal/mol

Question: What about the ΔS (PilF159-302 Q218E) of the same compound?
Answer: 10.9 ± 1.0 cal/mol/deg

Question: And the Kd (PilF159-302 Q218E; pH 7.5)?
Answer: 460 ± 28 nM

Question: And the N (PilF159-302 D266A)?
Answer: 0.95 ± 0.05

Question: And the ΔH (PilF159-302 D266A)?
Answer: -9.995 ± 0.161 kcal/mol

Question: And the ΔS (PilF159-302 D266A)?
Answer: 0.6 ± 0.4 cal/mol/deg

Question: What about the Kd (PilF159-302 D266A; pH 7.5) of the same compound?
Answer: 27 ± 2 nM

Question: What about the N (PilF159-302 K167R+E170D) of the same compound?
Answer: 0.76 ± 0.03

Question: And the ΔH (PilF159-302 K167R+E170D)?
Answer: -12.843 ± 0.363 kcal/mol

Question: What about the ΔS (PilF159-302 K167R+E170D) of the same compound?
Answer: -11.6 ± 1.3 cal/mol/deg

Question: What about the Kd (PilF159-302 K167R+E170D; pH 7.5) of the same compound?
Answer: 92 ± 8 nM

Question: What about the Kd (PilZ domain of PlzD) of the same compound?
Answer: 100 to 300 nM

Question: And the N (PilF159-302 K167L)?
Answer: 0.76 ± 0.10

Question: And the ΔH (PilF159-302 K167L)?
Answer: -10.241 ± 0.494 kcal/mol

Question: What about the ΔS (PilF159-302 K167L) of the same compound?
Answer: 5.4 ± 1.4 cal/mol/deg

Question: What about the Kd (PilF159-302 K167L; pH 7.5) of the same compound?
Answer: 2 ± 0.3 nM

Question: And the Kd [3]?
Answer: 350 nM

Question: What about the N [4] of the same compound?
Answer: 0.94 ± 0.13

Question: What about the ΔH [4] of the same compound?
Answer: -14.263 ± 2.001 kcal/mol

Question: And the ΔS [4]?
Answer: -11.4 ± 6.4 cal/mol/deg

Question: What about the Kd ([4]; pH 7.5) of the same compound?
Answer: 7 ± 2 nM

Reference: paper PMC11731258, “The structural basis for high-affinity c-di-GMP binding to the GSPII-B domain of the traffic ATPase PilF from Thermus thermophilus” (The Journal of Biological Chemistry, 2024)
